According to article PMC3961306, “Comparison of the Cancer Gene Targeting and Biochemical Selectivities of All Targeted Kinase Inhibitors Approved for Clinical Use” (PLoS ONE, 2014):
Like-named read-outs stand apart in the source and are kept apart here.

Legend:
[1] = tested on: forty-four human cancer cell lines; experiment: Cell proliferation assay (ATPlite, 72 hours) in the 44 cell line Oncolines panel; format: cell-based; conditions: Homo sapiens
[2] = molecular target: panel of more than 300 wild-type and mutant kinases (313 kinase panel) (Homo sapiens, UniProt P07947, T348I); experiment: Kinase profiling in a biochemical assay panel (mobility shift assays and ELISA), %-inhibition at 1 μM; selectivity entropy; conditions: kinase YES(T348I); compound at 1 μM
Chain of panel of more than 300 wild-type and mutant kinases (313 kinase panel) (Homo sapiens, UniProt P07947, T348I) (P07947 whole entry T348I): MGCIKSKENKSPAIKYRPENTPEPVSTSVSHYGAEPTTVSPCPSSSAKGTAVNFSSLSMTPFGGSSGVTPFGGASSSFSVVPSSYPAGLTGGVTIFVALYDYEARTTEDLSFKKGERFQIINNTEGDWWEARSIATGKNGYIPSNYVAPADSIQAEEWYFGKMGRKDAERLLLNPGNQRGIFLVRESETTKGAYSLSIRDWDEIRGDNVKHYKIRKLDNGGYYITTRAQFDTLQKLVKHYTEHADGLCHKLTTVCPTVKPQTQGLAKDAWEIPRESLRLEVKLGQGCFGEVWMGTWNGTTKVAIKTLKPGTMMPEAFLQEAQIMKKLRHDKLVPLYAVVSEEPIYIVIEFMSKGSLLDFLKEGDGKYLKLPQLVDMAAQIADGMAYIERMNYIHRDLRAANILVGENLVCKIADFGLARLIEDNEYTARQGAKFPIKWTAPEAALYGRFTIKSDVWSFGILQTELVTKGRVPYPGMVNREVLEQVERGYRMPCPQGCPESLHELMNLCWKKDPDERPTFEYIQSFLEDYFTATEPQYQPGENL

[3] = molecular target: panel of more than 300 wild-type and mutant kinases (313 kinase panel) (Homo sapiens, UniProt P09619); experiment: as above; conditions: kinase PDGFRβ; 1 μM
[4] = molecular target: panel of more than 300 wild-type and mutant kinases (313 kinase panel) (Homo sapiens, UniProt P15056); experiment: as above; conditions: kinase BRAF; 1 μM compound
Chain of panel of more than 300 wild-type and mutant kinases (313 kinase panel) (Homo sapiens, UniProt P15056) (P15056 whole entry, stated change not applied): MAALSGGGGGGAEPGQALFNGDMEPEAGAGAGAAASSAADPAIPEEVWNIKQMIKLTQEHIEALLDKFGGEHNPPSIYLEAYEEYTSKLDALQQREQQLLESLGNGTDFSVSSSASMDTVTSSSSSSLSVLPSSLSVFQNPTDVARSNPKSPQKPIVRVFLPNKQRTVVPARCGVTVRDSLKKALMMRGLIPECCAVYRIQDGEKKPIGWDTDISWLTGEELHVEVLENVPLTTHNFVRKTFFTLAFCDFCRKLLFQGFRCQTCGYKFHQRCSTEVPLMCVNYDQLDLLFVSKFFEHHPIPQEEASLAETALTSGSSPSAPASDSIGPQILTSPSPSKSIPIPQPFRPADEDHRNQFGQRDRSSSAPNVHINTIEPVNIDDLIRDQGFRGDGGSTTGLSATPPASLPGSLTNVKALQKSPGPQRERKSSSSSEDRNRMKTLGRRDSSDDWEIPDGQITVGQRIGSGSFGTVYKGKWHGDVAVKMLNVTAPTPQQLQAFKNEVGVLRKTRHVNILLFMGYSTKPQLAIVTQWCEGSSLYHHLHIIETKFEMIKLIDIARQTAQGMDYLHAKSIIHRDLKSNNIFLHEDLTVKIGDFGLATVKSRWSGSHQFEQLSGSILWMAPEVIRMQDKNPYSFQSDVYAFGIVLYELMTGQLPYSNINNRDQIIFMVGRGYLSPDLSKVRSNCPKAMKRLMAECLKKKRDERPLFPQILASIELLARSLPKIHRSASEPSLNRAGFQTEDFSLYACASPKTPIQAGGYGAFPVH

[5] = molecular target: panel of more than 300 wild-type and mutant kinases (313 kinase panel) (Homo sapiens, UniProt P15056, V600E); experiment: as above; conditions: kinase BRAF(V600E); 1 μM compound
Chain of panel of more than 300 wild-type and mutant kinases (313 kinase panel) (Homo sapiens, UniProt P15056, V600E) (P15056 whole entry V600E): as the sequence (P15056 whole entry, stated change not applied) above, with V600E counted along it

[6] = molecular target: panel of more than 300 wild-type and mutant kinases (313 kinase panel) (Homo sapiens, UniProt P22612); experiment: as above; conditions: kinase PKACγ; 1 μM
[7] = molecular target: T1, panel of more than 300 wild-type and mutant kinases (313 kinase panel) (Homo sapiens, UniProt P51955); experiment: as above; conditions: kinase NEK2; 1 μM
T1 sequence (P51955 1-445): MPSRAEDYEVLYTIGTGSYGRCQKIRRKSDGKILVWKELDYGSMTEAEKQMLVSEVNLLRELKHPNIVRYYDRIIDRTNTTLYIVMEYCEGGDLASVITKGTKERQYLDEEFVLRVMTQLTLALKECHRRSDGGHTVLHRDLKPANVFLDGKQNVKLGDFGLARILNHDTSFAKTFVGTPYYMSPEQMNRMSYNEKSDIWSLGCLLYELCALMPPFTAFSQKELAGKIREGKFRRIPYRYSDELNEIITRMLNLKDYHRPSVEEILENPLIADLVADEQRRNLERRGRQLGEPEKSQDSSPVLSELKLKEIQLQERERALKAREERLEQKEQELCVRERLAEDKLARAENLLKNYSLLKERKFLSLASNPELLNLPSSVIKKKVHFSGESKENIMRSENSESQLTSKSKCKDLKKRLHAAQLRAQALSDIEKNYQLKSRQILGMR

[8] = molecular target: T2, panel of more than 300 wild-type and mutant kinases (313 kinase panel) (Homo sapiens, UniProt Q16832); experiment: as above; conditions: kinase DDR2; compound at 1 μM
T2 sequence (Q16832 22-855): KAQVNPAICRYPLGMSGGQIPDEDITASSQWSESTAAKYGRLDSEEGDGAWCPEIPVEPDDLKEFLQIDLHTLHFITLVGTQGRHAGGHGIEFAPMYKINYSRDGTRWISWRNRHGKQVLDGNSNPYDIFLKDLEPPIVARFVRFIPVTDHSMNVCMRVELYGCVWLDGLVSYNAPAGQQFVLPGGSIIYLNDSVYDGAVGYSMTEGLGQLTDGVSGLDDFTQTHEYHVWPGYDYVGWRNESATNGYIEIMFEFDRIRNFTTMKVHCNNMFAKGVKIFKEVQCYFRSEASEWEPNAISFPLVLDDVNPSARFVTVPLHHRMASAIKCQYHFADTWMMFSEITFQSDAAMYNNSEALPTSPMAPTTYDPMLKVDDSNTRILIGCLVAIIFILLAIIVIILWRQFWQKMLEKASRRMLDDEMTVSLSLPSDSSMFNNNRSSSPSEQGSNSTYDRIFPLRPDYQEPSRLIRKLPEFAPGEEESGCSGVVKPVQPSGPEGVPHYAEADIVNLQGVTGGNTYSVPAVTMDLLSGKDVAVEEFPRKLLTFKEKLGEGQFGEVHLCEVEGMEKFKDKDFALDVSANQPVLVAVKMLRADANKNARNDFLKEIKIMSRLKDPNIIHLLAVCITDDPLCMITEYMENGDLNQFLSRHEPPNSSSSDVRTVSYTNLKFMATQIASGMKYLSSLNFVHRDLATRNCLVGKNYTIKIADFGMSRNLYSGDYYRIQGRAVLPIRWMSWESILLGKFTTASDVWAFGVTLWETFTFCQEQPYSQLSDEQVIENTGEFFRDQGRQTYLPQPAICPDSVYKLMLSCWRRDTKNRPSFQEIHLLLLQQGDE

[9] = molecular target: panel of more than 300 wild-type and mutant kinases (313 kinase panel) (Homo sapiens, UniProt Q8TDX7); experiment: as above; conditions: kinase NEK7; 1 μM

C[C@@H](Oc1cc(-c2cnn(C3CCNCC3)c2)cnc1N)c1c(Cl)ccc(F)c1Cl [crizotinib]
IC50 ([1]; 4-4 cell, read-out: cell panel IC50, J82): 5230 nM
IC50 ([1]; 4-4 cell, read-out: cell panel IC50, PA-1): 888 nM
IC50 ([1]; 4-4 cell, read-out: cell panel IC50, SJCRH30): 1090 nM
IC50 ([1]; 4-4 cell, read-out: cell panel IC50, SR): 44 nM
IC50 ([1]; 769-P, read-out: cell panel IC50, 769-P): 2960 nM
IC50 ([1]; 786-0, read-out: cell panel IC50, 786-0): 3880 nM
IC50 ([1]; A 172, read-out: cell panel IC50, A-172): 1700 nM
IC50 ([1]; A204, read-out: cell panel IC50, A-204): 2460 nM
IC50 ([1]; A498, read-out: cell panel IC50, A-498): 2240 nM
IC50 ([1]; A549, read-out: cell panel IC50, A-549): 1180 nM
IC50 ([1]; A-375, read-out: cell panel IC50, A375): 1080 nM
IC50 ([1]; A-427, read-out: cell panel IC50, A-427): 672 nM
IC50 ([1]; ACHN, read-out: cell panel IC50, ACHN): 2240 nM
IC50 ([1]; AN3-CA, read-out: cell panel IC50, AN3 CA): 1720 nM
IC50 ([1]; AU565, read-out: cell panel IC50, AU-565): 7790 nM
IC50 ([1]; BT-20, read-out: cell panel IC50, BT-20): 12700 nM
IC50 ([1]; BT-549, read-out: cell panel IC50, BT-549): 4890 nM
IC50 ([1]; BXPC-3, read-out: cell panel IC50, BxPC-3): 1390 nM
IC50 ([1]; C-33-A, read-out: cell panel IC50, C-33 A): 3040 nM
IC50 ([1]; CAL-27, read-out: cell panel IC50, CAL 27): 1820 nM
IC50 ([1]; CCRF-CEM, read-out: cell panel IC50, CCRF-CEM): 567 nM
IC50 ([1]; DLD-1, read-out: cell panel IC50, DLD-1): 3000 nM
IC50 ([1]; FaDu, read-out: cell panel IC50, FaDu): 5340 nM
IC50 ([1]; HCT-15, read-out: cell panel IC50, HCT-15): 4840 nM
IC50 ([1]; HCT-116, read-out: cell panel IC50, HCT-116): 1690 nM
IC50 ([1]; Hs-578T, read-out: cell panel IC50, Hs 578T): 2750 nM
IC50 ([1]; Jurkat E6.1, read-out: cell panel IC50, Jurkat E6.1): 1110 nM
IC50 ([1]; K562, read-out: cell panel IC50, K-562): 252 nM
IC50 ([1]; LS174T, read-out: cell panel IC50, LS 174T): 842 nM
IC50 ([1]; LoVo, read-out: cell panel IC50, LoVo): 658 nM
IC50 ([1]; MG-63, read-out: cell panel IC50, MG-63): 1730 nM
IC50 ([1]; MOLT-4, read-out: cell panel IC50, MOLT-4): 347 nM
IC50 ([1]; NCI-H82, read-out: cell panel IC50, NCI-H82): 854 nM
IC50 ([1]; NCI-H460, read-out: cell panel IC50, NCI-H460): 1150 nM
IC50 ([1]; OVCAR-3, read-out: cell panel IC50, OVCAR-3): 4560 nM
IC50 ([1]; RPMI-7951, read-out: cell panel IC50, RPMI-7951): 1530 nM
IC50 ([1]; SHP77, read-out: cell panel IC50, SHP-77): 3120 nM
IC50 ([1]; SK-N-AS, read-out: cell panel IC50, SK-N-AS): 1310 nM
IC50 ([1]; SW48, read-out: cell panel IC50, SW48): 1960 nM
IC50 ([1]; SW480, read-out: cell panel IC50, SW480): 3610 nM
IC50 ([1]; SW-620, read-out: cell panel IC50, SW620): 1330 nM
IC50 ([1]; U2OS, read-out: cell panel IC50, U-2 OS): 1980 nM
IC50 ([1]; U-87 MG, 72 h, read-out: IC50 in cell proliferation assay (table S5 cellpanel data)): 3910 nM
%-inhibition of YES(T348I) [2]: 93%
%-inhibition of PDGFRβ [3]: 18%
%-inhibition, BRAF [4]: 12%
%-inhibition, BRAF(V600E) [5]: 10%
%-inhibition of PKACγ [6]: -6.52%
%-inhibition of NEK2 [7]: -2.69%
%-inhibition of DDR2 [8]: 88%
%-inhibition of NEK7 [9]: -5.3%
